This is an account of results in patent publication US20180000085A1, “USE OF PICOLINAMIDE COMPOUNDS WITH FUNGICIDAL ACTIVITY” (DOW AGROSCIENCES LLC, priority 2014, published 2018).

One assay relates to Zymoseptoria tritici. As to the kind of experiment: Leaf blotch of wheat (SEPTTR) disease control on wheat seedlings. The assay is classed as in vivo. The arrangement: key to SEPTTR 1DP, HV activity at 100 ppm (% control rating) / SEPTTR 3DC, HV activity at 100 ppm (% control rating) / SEPTTR disease control, 1DP / SEPTTR disease control, 3DC / SEPTTR 1DP disease control rating, HV activity / SEPTTR 3DC disease control rating, HV activity / SEPTTR 3DC, LV activity at 125.1 g/H (% Control rating) / SEPTTR 1DP, LV activity at 125.1 g/H (% Control rating) / SEPTTR 1DP disease control rating, LV activity at 125.1 g/H / SEPTTR 3DC disease control rating, LV activity at 125.1 g/H / SEPTTR 3DC disease control rating, HV activity at 100 ppm / SEPTTR 1DP disease control rating, HV activity at 100 ppm / HV activity at 100 ppm SEPTTR 3DC (disease control rating) / HV activity at 100 ppm SEPTTR 1DP (disease control rating) / LV activity at 125.1 g/H SEPTTR 1DP (disease control rating) / LV activity at 125.1 g/H SEPTTR 3DC (disease control rating): A: > 80; B: ≤ 80; C: Not Tested; D: No Activity Observed in the Reported Assay.

The next assay deals with Puccinia triticina. As to the kind of experiment: Wheat brown rust (PUCCRT) disease control on wheat seedlings. The arrangement: key to PUCCRT 3DC, HV activity at 100 ppm (% control rating) / PUCCRT disease control, 3DC / PUCCRT 1DP disease control rating, HV activity / PUCCRT 3DC disease control rating, HV activity / PUCCRT 3DC, LV activity at 125.1 g/H (% Control rating) / PUCCRT 1DP, LV activity at 125.1 g/H (% Control rating) / PUCCRT 3DC disease control rating, LV activity at 125.1 g/H / PUCCRT 1DP disease control rating, LV activity at 125.1 g/H / PUCCRT 3DC disease control rating, HV activity at 100 ppm / PUCCRT 1DP disease control rating, HV activity at 100 ppm / HV activity at 100 ppm PUCCRT 3DC (disease control rating) / LV activity at 125.1 g/H PUCCRT 1DP (disease control rating) / LV activity at 125.1 g/H PUCCRT 3DC (disease control rating): A: > 80; B: ≤ 80; C: Not Tested; D: No Activity Observed in the Reported Assay. The assay is classed as in vivo.

Where [1] appears, read: low volume application, 125.1 g/H, 1 Day Protectant.
The mark [2] stands for this setting: low volume application, 125.1 g/H, 3 Day Curative.
[3] abbreviates: HV activity at 100 ppm, 1 Day Protectant, wheat.
Where [4] appears, read: HV activity at 100 ppm, 3 Day Curative, wheat.
Where [5] appears, read: high volume application, 100 ppm, 1DP.
The mark [6] stands for this setting: high volume application, 100 ppm, 3DC.
[7] abbreviates: low volume application, 125.1 g/H, 1 day protectant.
[8] abbreviates: low volume application, 125.1 g/H, 3 day curative.
Where [9] appears, read: high volume application, 100 ppm, 1 day protectant.
The mark [10] stands for this setting: high volume application, 100 ppm, 3 day curative.

For the molecule `CCCOCC(C)OC(=O)C(C)NC(=O)c1nccc(OC)c1OCOC(=O)C(C)C` (centres unmarked) [Cmpd 523], in the assay on Zymoseptoria tritici (setting [1]), the “SEPTTR 1DP, LV activity at 125.1 g/H (% Control rating)” value is listed as “D”. For the same molecule, in the assay on Zymoseptoria tritici (setting [2]), the “SEPTTR 3DC, LV activity at 125.1 g/H (% Control rating)” value is reported as “D”. Further, the “PUCCRT 1DP, LV activity at 125.1 g/H (% Control rating)” value in the assay on Puccinia triticina (setting [1]) is “D”. Moreover, in the assay on Puccinia triticina (setting [2]), the “PUCCRT 3DC, LV activity at 125.1 g/H (% Control rating)” value is listed as “D”.
`CCCOC(CC)C(Oc1ccccc1)C(C)OC(=O)C(C)NC(=O)c1nccc(OC)c1O` (centres unmarked) [Cmpd 289]: in the assay with Zymoseptoria tritici (setting [3]), the “SEPTTR disease control, 1DP” value is “B (≤ 80)”. Further, in the assay on Zymoseptoria tritici (setting [4]), the “SEPTTR disease control, 3DC” value was “A (> 80)”. For the same molecule, the “SEPTTR 1DP disease control rating, HV activity” value with Zymoseptoria tritici (HV application at 100 ppm, 1 Day Protectant, wheat leaf blotch) is recorded as “B (≤ 80)”. In addition, the “SEPTTR 3DC disease control rating, HV activity” value with Zymoseptoria tritici (HV application at 100 ppm, 3 Day Curative, wheat leaf blotch) was “A (> 80)”. Besides, the “SEPTTR 1DP, HV activity at 100 ppm (% control rating)” value with Zymoseptoria tritici (setting [5]) was “B (≤ 80)”. Moreover, the “SEPTTR 3DC, HV activity at 100 ppm (% control rating)” value in the assay on Zymoseptoria tritici (setting [6]) is “A (> 80)”. In the assay on Puccinia triticina (setting [3]), the “PUCCRT disease control, 1DP” value is reported as “A (> 80)”. For the same molecule, the “PUCCRT disease control, 3DC” value with Puccinia triticina (setting [4]) is “A (> 80)”. Moreover, the “PUCCRT 1DP disease control rating, HV activity” value in the assay with Puccinia triticina (HV application at 100 ppm, 1 Day Protectant, wheat brown rust) was “A (> 80)”. The “PUCCRT 3DC disease control rating, HV activity” value with Puccinia triticina (HV application at 100 ppm, 3 Day Curative, wheat brown rust) is “A (> 80)”. In addition, in the assay on Puccinia triticina (setting [5]), the “PUCCRT 1DP, HV activity at 100 ppm (% control rating)” value is on record as “A (> 80)”. For the same molecule, in the assay with Puccinia triticina (setting [6]), the “PUCCRT 3DC, HV activity at 100 ppm (% control rating)” value is on record as “A (> 80)”.
On to `CCC(CC)C(Oc1cc(F)cc(Cl)c1)C(C)OC(=O)C(CC(C)C)NC(=O)c1nccc(OC)c1OC(C)=O` (centres unmarked) [Cmpd 688], for which the “SEPTTR 1DP disease control rating, LV activity at 125.1 g/H” value in the assay on Zymoseptoria tritici (setting [7]) is “D”. Further, the “SEPTTR 3DC disease control rating, LV activity at 125.1 g/H” value with Zymoseptoria tritici (setting [8]) was “B (≤ 80)”. Moreover, the “PUCCRT 1DP disease control rating, LV activity at 125.1 g/H” value in the assay with Puccinia triticina (setting [7]) is reported as “D”. Besides, in the assay on Puccinia triticina (setting [8]), the “PUCCRT 3DC disease control rating, LV activity at 125.1 g/H” value is reported as “D”.
`COc1ccnc(C(=O)N[C@@H](C)C(=O)O[C@@H](C)[C@H](OCC2CC2)C2CC2)c1OC(C)=O` [Cmpd 1066]: the “LV activity at 125.1 g/H SEPTTR 1DP (disease control rating)” value in the assay on Zymoseptoria tritici (low volume application, 125.1 g/H, 1 Day Protectant, wheat leaf blotch) is listed as “B (≤ 80)”. For the same molecule, the “LV activity at 125.1 g/H SEPTTR 3DC (disease control rating)” value in the assay with Zymoseptoria tritici (low volume application, 125.1 g/H, 3 Day Curative, wheat leaf blotch) is “B (≤ 80)”. Also, the “LV activity at 125.1 g/H PUCCRT 1DP (disease control rating)” value with Puccinia triticina (low volume application, 125.1 g/H, 1 Day Protectant, wheat brown rust) is “B (≤ 80)”. The “LV activity at 125.1 g/H PUCCRT 3DC (disease control rating)” value in the assay with Puccinia triticina (low volume application, 125.1 g/H, 3 Day Curative, wheat brown rust) is on record as “A (> 80)”.
As for `COc1ccnc(C(=O)NC(C)C(=O)OC(C)C(Oc2cccc(C(F)(F)F)c2)C(C)C)c1OC(C)=O` (centres unmarked) [Cmpd 858], in the assay with Zymoseptoria tritici (setting [7]), the “SEPTTR 1DP disease control rating, LV activity at 125.1 g/H” value is reported as “B (≤ 80)”. Moreover, the “SEPTTR 3DC disease control rating, LV activity at 125.1 g/H” value in the assay with Zymoseptoria tritici (setting [8]) is recorded as “A (> 80)”. The “PUCCRT 1DP disease control rating, LV activity at 125.1 g/H” value with Puccinia triticina (setting [7]) is “A (> 80)”. Also, the “PUCCRT 3DC disease control rating, LV activity at 125.1 g/H” value with Puccinia triticina (setting [8]) is given as “A (> 80)”.
Take `COc1ccnc(C(=O)N[C@@H](C)C(=O)O[C@@H](C)[C@H](Oc2cccc(Cl)c2)C(C)C)c1OCOC(=O)C(C)C` [Cmpd 571]: the “SEPTTR 1DP, LV activity at 125.1 g/H (% Control rating)” value with Zymoseptoria tritici (setting [1]) was “B (≤ 80)”. Besides, in the assay with Zymoseptoria tritici (setting [2]), the “SEPTTR 3DC, LV activity at 125.1 g/H (% Control rating)” value was “A (> 80)”. Moreover, in the assay on Puccinia triticina (setting [1]), the “PUCCRT 1DP, LV activity at 125.1 g/H (% Control rating)” value was “A (> 80)”. In the assay with Puccinia triticina (setting [2]), the “PUCCRT 3DC, LV activity at 125.1 g/H (% Control rating)” value was “A (> 80)”.
For `CC[C@H](Cc1ccc(F)cc1)[C@@H](Oc1ccccc1)[C@H](C)OC(=O)[C@H](C)NC(=O)c1nccc(OC)c1OC(=O)C(C)C` [Cmpd 473], in the assay on Zymoseptoria tritici (setting [1]), the “SEPTTR 1DP, LV activity at 125.1 g/H (% Control rating)” value is “B (≤ 80)”. Further, the “SEPTTR 3DC, LV activity at 125.1 g/H (% Control rating)” value in the assay on Zymoseptoria tritici (setting [2]) is given as “B (≤ 80)”. Besides, in the assay with Puccinia triticina (setting [1]), the “PUCCRT 1DP, LV activity at 125.1 g/H (% Control rating)” value is “A (> 80)”. Besides, in the assay with Puccinia triticina (setting [2]), the “PUCCRT 3DC, LV activity at 125.1 g/H (% Control rating)” value is listed as “D”.
Regarding `COc1ccnc(C(=O)N[C@@H](C)C(=O)O[C@@H](C)[C@H](Oc2ccc(Cl)cc2Cl)C(C)C)c1OCOC(=O)C(C)C` [Cmpd 572], the “SEPTTR 1DP, LV activity at 125.1 g/H (% Control rating)” value in the assay with Zymoseptoria tritici (setting [1]) was “B (≤ 80)”. In addition, the “SEPTTR 3DC, LV activity at 125.1 g/H (% Control rating)” value in the assay on Zymoseptoria tritici (setting [2]) is reported as “B (≤ 80)”. Also, the “PUCCRT 1DP, LV activity at 125.1 g/H (% Control rating)” value in the assay on Puccinia triticina (setting [1]) is given as “A (> 80)”. Also, the “PUCCRT 3DC, LV activity at 125.1 g/H (% Control rating)” value in the assay on Puccinia triticina (setting [2]) is “A (> 80)”.
For the molecule `COc1ccnc(C(=O)N[C@@H](C)C(=O)O[C@@H](C)[C@H](Oc2ccc(C)cc2Cl)C2CCCC2)c1O` [Cmpd 843, (S)-(1R,2S)-1-(2-chloro-4-methylphenoxy)-1-cyclopentylpropan-2-yl-2-(3-hydroxy-4-methoxypicolinamido)propanoate], the “SEPTTR 1DP disease control rating, HV activity at 100 ppm” value with Zymoseptoria tritici (setting [9]) was “D”. In the assay on Zymoseptoria tritici (setting [10]), the “SEPTTR 3DC disease control rating, HV activity at 100 ppm” value is “B (≤ 80)”. Also, in the assay with Puccinia triticina (setting [9]), the “PUCCRT 1DP disease control rating, HV activity at 100 ppm” value is “D”. Further, in the assay with Puccinia triticina (setting [10]), the “PUCCRT 3DC disease control rating, HV activity at 100 ppm” value is “D”.
